Columns and labels:
Type in all cases: physicochemical
[1] = Solubility of compound (a) in mixed excipients (TPGS with Precirol ATO 5, PEG6000 or PEG3350)
Procedure: The solubility of these mixed excipients with compound (a) was then tested. Different ratios of the excipients were mixed at different temperatures (Table 6); then compound (a) was added and the mixtures stirred at the same temperature. The samples were analyzed by UPLC (see method above).

[2] = Solubility test in TPGS with different ratios of PEG1000
Procedure: About 0.2 g of compound (a) was weighed into 1.5 mL HPLC vials, 0.6 g of molten TPGS, TPGS with 5%, 10% or 15% PEG1000 (in w/w of TPGS) were then added and kept stirring at 45° C. at 700 rpm. Additionally to each of these mixtures, 100 ppm of Ascorbic Palmitate were added. After stirring for 24 hours, they were transferred into filter centrifugal tube and centrifuged at 40° C. for 5 minutes at 14000 rpm rate. The solutions in the bottom of filter centrifugal tube were weighed into 25 mL volumetric flasks (about 10-20 mg), diluent was added ACN:H2O=1:1 v/v, ultrasonicated for 10 min and more diluent was added to scale and analyze by UPLC (see method above). The solid residues after solubility test were collected and analyzed by XRPD (the solid residue in TPGS and TPGS with 5% PEG1000 were washed with water at 50° C. 3 times and analyzed by XRPD).
Solubility test of compound (a) in TPGS with different ratio of PEG1000 after stirring at 45° C. for 96 hours were further tested to determine the effect of time on solubility and XRPD pattern.

[3] = Solubility test in PEG1000
Procedure: About 0.5 g of compound (a) was weighed into 4 mL glass vials, 1.5 g of molten PEG1000 were then added and kept stirring at 40° C. or 50° C. at 700 rpm. After stirring for 24 hours, the obtained mixtures were transferred into a filter centrifugal tube and centrifuged at 40° C. for 1 minute at 14000 rpm rate. The solution in the bottom of filter centrifugal tube wad weighed into 25 mL volumetric flasks (about 25 mg), diluent was added ACN:H2O=1:1 v/v, ultrasonicated for 10 min and more diluent was added to scale and analyzed by UPLC (see method above).

[4] = Solubility test in Gelucire 50/13 and PEG 3350
Procedure: Compound (a) was weighed into a 1.5 mL HPLC vial, added about 1 mL or 880 mg of molten media, then kept stirring at different temperature at 700 rpm (see details in Table 1). Compound (a) was added until a suspension was visually observable. After stirring for about 24 hours, the obtained mixtures were quickly transferred to a filter centrifugal tube and centrifuged at 40° C. for 1 minute at 14000 rpm rate. The solution in the bottom of the filter centrifugal tube was weighed into 10 mL or 25 mL volumetric flasks (about 15-20 mg), diluents were added (ACN: water=1:1 v/v for PEG3350 or MeOH:water=8:2 v/v for Gelucire 50/13), ultrasonicated for 10 min and more diluent was added to scale and analyzed by UPLC (see method above).

Structure (SMILES): COc1cc(NC(C(=O)c2c[nH]c3ccc(OC(F)(F)F)cc23)c2ccc(Cl)cc2OC)cc(S(C)(=O)=O)c1 (centres unmarked) [compound (a)]
- Solubility ([1]; in TPGS:ATO5 90:10 w/w, 60° C.): 216.1 mg/g
- Solubility ([1]; in TPGS:ATO5 90:10 w/w, 65° C.): 219.0 mg/g
- Solubility ([1]; in TPGS:ATO5 95:5 w/w, 60° C.): 270.0 mg/g
- Solubility ([1]; in TPGS:ATO5 95:5 w/w, 65° C.): 295.5 mg/g
- Solubility ([1]; in TPGS:ATO5 98:2 w/w, 60° C.): 228.2 mg/g
- Solubility ([1]; in TPGS:ATO5 98:2 w/w, 65° C.): 248.5 mg/g
- Solubility ([1]; in TPGS:PEG3350 90:10 w/w, 55° C.): 71.0 mg/g
- Solubility ([1]; in TPGS:PEG3350 90:10 w/w, 60° C.): 76.2 mg/g
- Solubility ([1]; in TPGS:PEG6000 90:10 w/w, 55° C.): 60.8 mg/g
- Solubility ([1]; in TPGS:PEG6000 90:10 w/w, 60° C.): 66.6 mg/g
- Solubility ([1]; in TPGS:PEG6000 95:5 w/w, 55° C.): 81.0 mg/g
- Solubility ([1]; in TPGS:PEG6000 95:5 w/w, 60° C.): 84.0 mg/g
- Solubility ([1]; in TPGS:PEG6000 98:2 w/w, 55° C.): 63.0 mg/g
- Solubility ([1]; in TPGS:PEG6000 98:2 w/w, 60° C.): 66.8 mg/g
- Solubility ([1]; in the Precirol ATO 5/TPGS system): > 200 mg/g
- Solubility ([2]; in TPGS + 5 vol % PEG1000 + 100 ppm AP, 45° C., 96 h): 186 mg/g
- Solubility ([2]; in TPGS + 5 vol % PEG1000, 45° C., 24 h): 263 mg/g
- Solubility ([2]; in TPGS + 10 vol % PEG1000 + 100 ppm AP, 45° C., 96 h): 157 mg/g
- Solubility ([2]; in TPGS + 10 vol % PEG1000, 45° C., 24 h): 206 mg/g
- Solubility ([2]; in TPGS + 15 vol % PEG1000 + 100 ppm AP, 45° C., 96 h): 144 mg/g
- Solubility ([2]; in TPGS + 15 vol % PEG1000, 45° C., 24 h): 179 mg/g
- Solubility ([2]; in TPGS + 100 ppm AP, 45° C., 96 h): 225 mg/g
- Solubility ([2]; in TPGS, 45° C., 24 h): 274 mg/g
- Solubility ([3]; in PEG1000): about 140 mg/g
- Solubility ([3]; in PEG 1000, 40° C., 700 rpm for 24 hours): 141 mg/g
- Solubility ([3]; in PEG 1000, 50° C., 700 rpm for 24 hours): 146 mg/g
- Solubility ([4]; in Gelucire 50/13, 55° C., 700 rpm for 24 hours): 141 mg/g
- Solubility ([4]; in Gelucire 50/13, 60° C., 700 rpm for 24 hours): 148 mg/g
- Solubility ([4]; in Gelucire 50/13 after stirring at 55° C. and 60° C. for 24 hours): higher than 120 mg/g
- Solubility ([4]; in PEG 3350, 60° C., 700 rpm for 24 hours): 112 mg/g
- Solubility ([4]; in PEG 3350, 65° C., 700 rpm for 24 hours): 121 mg/g
- Solubility ([4]; in PEG 3350 at both 60° C. and 65° C.): ≤ 120 mg/g

Reference: patent publication US20230301924A1, “PHARMACEUTICAL FORMULATION” (Janssen Pharmaceuticals, Inc., priority 2020, published 2023)
